In PubChem BioAssay AID2060882 (Molecular Pharmacology Branch, DTP, NCI, 2025):
Each block holds one compound with its values, some of them ahead of it.

Test system: 898857-211-R-J1-PDC complex spheroids, growth % test/control
Experiment: Anticancer human tumor 898857-211-R-J1-PDC patient-derived melanoma cell line growth inhibition [RAS]
Conditions: for IC50: curve of first compound; for viability, T/C: stronger effect = lower value
How it was run: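 Multi-cell-type spheroids: tumor cells plus HUVEC endothelial cells and mesenchymal stem cells. RAS-pathway inhibitors were combined with targeted agents, each dosed in half-log steps down from clinical Cmax, or from 10 microM when Cmax was unknown.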

[1] = second compound 0.0316 µM, first compound 0.0316 µM
[2] = second compound 0.0316 µM, first compound 0.1 µM
[3] = second compound 0.0316 µM, first compound 0.316 µM
[4] = second compound 0.0316 µM, first compound 1 µM
[5] = second compound 0.1 µM, first compound 0.0316 µM
[6] = second compound 0.1 µM, first compound 0.1 µM
[7] = second compound 0.1 µM, first compound 0.316 µM
[8] = second compound 0.1 µM, first compound 1 µM
[9] = second compound 0.316 µM, first compound 0.0316 µM
[10] = second compound 0.316 µM, first compound 0.1 µM
[11] = second compound 0.316 µM, first compound 0.316 µM
[12] = second compound 0.316 µM, first compound 1 µM
[13] = second compound 1 µM, first compound 0.0316 µM
[14] = second compound 1 µM, first compound 0.1 µM
[15] = second compound 1 µM, first compound 0.316 µM
[16] = second compound 1 µM, first compound 1 µM
[17] = second compound 3.16 µM, first compound 0.0316 µM
[18] = second compound 3.16 µM, first compound 0.1 µM
[19] = second compound 3.16 µM, first compound 0.316 µM
[20] = second compound 3.16 µM, first compound 1 µM
[21] = second compound 10 µM, first compound 0.0316 µM
[22] = second compound 10 µM, first compound 0.1 µM
[23] = second compound 10 µM, first compound 0.316 µM
[24] = second compound 10 µM, first compound 1 µM
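Also: spheroids exposed to compound for seven days before readout.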
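For viability, T/C in this document: 100% = DMSO vehicle control wells.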

IC50 (second compound 0.0316 µM): 269 nM | IC50 (second compound 0.1 µM): 256 nM | IC50 (second compound 0.316 µM): 235 nM | IC50 (second compound 1 µM): 298 nM | IC50 (second compound 3.16 µM): 196 nM | IC50 (second compound 10 µM): 6.16 nM
SMILES: CCN1CCN(Cc2ccc(Nc3ncc(F)c(-c4cc(F)c5nc(C)n(C(C)C)c5c4)n3)nc2)CC1 + C#Cc1c(F)ccc2cc(O)cc(-c3ncc4c(N5CC6CCC(C5)N6)nc(OCC56CCCN5CC(F)C6)nc4c3F)c12
viability, T/C (second compound 0.0316 µM, first compound 0.00316 µM): 98.6% | viability, T/C (second compound 0.0316 µM, first compound 0.01 µM): 87.4% | viability, T/C [1]: 91.9% | viability, T/C [2]: 74.3% | viability, T/C [3]: 46% | viability, T/C [4]: 37.5% | viability, T/C (second compound 0.1 µM, first compound 0.00316 µM): 101% | viability, T/C (second compound 0.1 µM, first compound 0.01 µM): 92.6% | viability, T/C [5]: 96.6% | viability, T/C [6]: 75.2% | viability, T/C [7]: 44.4% | viability, T/C [8]: 42.1% | viability, T/C (second compound 0.316 µM, first compound 0.00316 µM): 112% | viability, T/C (second compound 0.316 µM, first compound 0.01 µM): 99.5% | viability, T/C [9]: 96% | viability, T/C [10]: 65.4% | viability, T/C [11]: 44.9% | viability, T/C [12]: 32.2% | viability, T/C (second compound 1 µM, first compound 0.00316 µM): 93% | viability, T/C (second compound 1 µM, first compound 0.01 µM): 101% | viability, T/C [13]: 96.5% | viability, T/C [14]: 72.1% | viability, T/C [15]: 51.2% | viability, T/C [16]: 38.2% | viability, T/C (second compound 3.16 µM, first compound 0.00316 µM): 107% | viability, T/C (second compound 3.16 µM, first compound 0.01 µM): 92.3% | viability, T/C [17]: 91.2% | viability, T/C [18]: 56.5% | viability, T/C [19]: 45.9% | viability, T/C [20]: 33.6% | viability, T/C (second compound 10 µM, first compound 0.00316 µM): 56.4% | viability, T/C (second compound 10 µM, first compound 0.01 µM): 45.8% | viability, T/C [21]: 32.5% | viability, T/C [22]: 21.5% | viability, T/C [23]: 11.3% | viability, T/C [24]: 2.36%

IC50 (second compound 0.000949 µM): 121 nM | IC50 (second compound 0.003 µM): 168 nM | IC50 (second compound 0.00949 µM): 138 nM | IC50 (second compound 0.03 µM): 124 nM | IC50 (second compound 0.0949 µM): 188 nM | IC50 (second compound 0.3 µM): 144 nM
SMILES: CC1(O)CCCC1n1c(=O)c(C(F)F)cc2cnc(NC3CCN(S(C)(=O)=O)CC3)nc21 (stereo unspecified) + CCn1c(-c2cc(N3CCN(C)CC3)cnc2C(C)OC)c2c3cc(ccc31)-c1csc(n1)CC(NC(=O)C1CC1C)C(=O)N1CCCC(N1)C(=O)OCC(C)(C)C2
viability, T/C (second compound 0.000949 µM, first compound 0.0316 µM): 92.9% | viability, T/C (second compound 0.000949 µM, first compound 0.1 µM): 49.7% | viability, T/C (second compound 0.000949 µM, first compound 0.316 µM): 35.1% | viability, T/C (second compound 0.000949 µM, first compound 1 µM): 38.6% | viability, T/C (second compound 0.000949 µM, first compound 3.16 µM): 36.2% | viability, T/C (second compound 0.000949 µM, first compound 10 µM): 15.2% | viability, T/C (second compound 0.003 µM, first compound 0.0316 µM): 90.7% | viability, T/C (second compound 0.003 µM, first compound 0.1 µM): 58.5% | viability, T/C (second compound 0.003 µM, first compound 0.316 µM): 33.5% | viability, T/C (second compound 0.003 µM, first compound 1 µM): 39.4% | viability, T/C (second compound 0.003 µM, first compound 3.16 µM): 35.1% | viability, T/C (second compound 0.003 µM, first compound 10 µM): 17.2% | viability, T/C (second compound 0.00949 µM, first compound 0.0316 µM): 78.2% | viability, T/C (second compound 0.00949 µM, first compound 0.1 µM): 51% | viability, T/C (second compound 0.00949 µM, first compound 0.316 µM): 37.6% | viability, T/C (second compound 0.00949 µM, first compound 1 µM): 34.7% | viability, T/C (second compound 0.00949 µM, first compound 3.16 µM): 37.5% | viability, T/C (second compound 0.00949 µM, first compound 10 µM): 15.4% | viability, T/C (second compound 0.03 µM, first compound 0.0316 µM): 100% | viability, T/C (second compound 0.03 µM, first compound 0.1 µM): 49.5% | viability, T/C (second compound 0.03 µM, first compound 0.316 µM): 38.4% | viability, T/C (second compound 0.03 µM, first compound 1 µM): 36.5% | viability, T/C (second compound 0.03 µM, first compound 3.16 µM): 36.7% | viability, T/C (second compound 0.03 µM, first compound 10 µM): 16.6% | viability, T/C (second compound 0.0949 µM, first compound 0.0316 µM): 96% | viability, T/C (second compound 0.0949 µM, first compound 0.1 µM): 53.6% | viability, T/C (second compound 0.0949 µM, first compound 0.316 µM): 43.2% | viability, T/C (second compound 0.0949 µM, first compound 1 µM): 38.7% | viability, T/C (second compound 0.0949 µM, first compound 3.16 µM): 37.2% | viability, T/C (second compound 0.0949 µM, first compound 10 µM): 16.9% | viability, T/C (second compound 0.3 µM, first compound 0.0316 µM): 107% | viability, T/C (second compound 0.3 µM, first compound 0.1 µM): 55.4% | viability, T/C (second compound 0.3 µM, first compound 0.316 µM): 33.6% | viability, T/C (second compound 0.3 µM, first compound 1 µM): 36.3% | viability, T/C (second compound 0.3 µM, first compound 3.16 µM): 34.2% | viability, T/C (second compound 0.3 µM, first compound 10 µM): 16%

IC50 (second compound 0.0316 µM): > 10000 nM | IC50 (second compound 0.1 µM): > 10000 nM | IC50 (second compound 0.316 µM): > 10000 nM | IC50 (second compound 1 µM): > 10000 nM | IC50 (second compound 3.16 µM): > 10000 nM | IC50 (second compound 10 µM): < 31.6 nM
SMILES: Cc1nc(N2CCC3(CC2)COC(C)C3N)c(CO)nc1Sc1ccnc(N)c1Cl (stereo unspecified) + C#Cc1c(F)ccc2cc(O)cc(-c3ncc4c(N5CC6CCC(C5)N6)nc(OCC56CCCN5CC(F)C6)nc4c3F)c12
viability, T/C [1]: 117% | viability, T/C [2]: 91.8% | viability, T/C [3]: 100% | viability, T/C [4]: 97.3% | viability, T/C (second compound 0.0316 µM, first compound 3.16 µM): 89.8% | viability, T/C (second compound 0.0316 µM, first compound 10 µM): 88.3% | viability, T/C [5]: 103% | viability, T/C [6]: 96.6% | viability, T/C [7]: 96.2% | viability, T/C [8]: 87.1% | viability, T/C (second compound 0.1 µM, first compound 3.16 µM): 97.2% | viability, T/C (second compound 0.1 µM, first compound 10 µM): 86.3% | viability, T/C [9]: 101% | viability, T/C [10]: 102% | viability, T/C [11]: 102% | viability, T/C [12]: 98.2% | viability, T/C (second compound 0.316 µM, first compound 3.16 µM): 103% | viability, T/C (second compound 0.316 µM, first compound 10 µM): 99% | viability, T/C [13]: 104% | viability, T/C [14]: 108% | viability, T/C [15]: 107% | viability, T/C [16]: 104% | viability, T/C (second compound 1 µM, first compound 3.16 µM): 96.6% | viability, T/C (second compound 1 µM, first compound 10 µM): 108% | viability, T/C [17]: 96.8% | viability, T/C [18]: 108% | viability, T/C [19]: 86.3% | viability, T/C [20]: 106% | viability, T/C (second compound 3.16 µM, first compound 3.16 µM): 103% | viability, T/C (second compound 3.16 µM, first compound 10 µM): 90.8% | viability, T/C [21]: 37.6% | viability, T/C [22]: 45.1% | viability, T/C [23]: 49% | viability, T/C [24]: 52.2% | viability, T/C (second compound 10 µM, first compound 3.16 µM): 38.2% | viability, T/C (second compound 10 µM, first compound 10 µM): 15.8%
